Literature values as cited in US20110105330A1, “C[…]” (priority 2009, published 2011).

Settings: ph 1.9, 20° C.

Compound: O=C(O)CNCP(=O)(O)O [Glyphosate, n-(phosphonomethyl) glycine]
- solubility in water: approximately 10.5 g/L
